# Source: the Kinase Knowledgebase extract (Sharma et al. 2016)
# pIC50: −log10 of the molar value.
# Target: PIK3CA (human) (UniProt P42336)
# Assay: Assessment of PIK3CA Kinase Activity
# Chain of PIK3CA (human) (P42336 whole entry, looked up): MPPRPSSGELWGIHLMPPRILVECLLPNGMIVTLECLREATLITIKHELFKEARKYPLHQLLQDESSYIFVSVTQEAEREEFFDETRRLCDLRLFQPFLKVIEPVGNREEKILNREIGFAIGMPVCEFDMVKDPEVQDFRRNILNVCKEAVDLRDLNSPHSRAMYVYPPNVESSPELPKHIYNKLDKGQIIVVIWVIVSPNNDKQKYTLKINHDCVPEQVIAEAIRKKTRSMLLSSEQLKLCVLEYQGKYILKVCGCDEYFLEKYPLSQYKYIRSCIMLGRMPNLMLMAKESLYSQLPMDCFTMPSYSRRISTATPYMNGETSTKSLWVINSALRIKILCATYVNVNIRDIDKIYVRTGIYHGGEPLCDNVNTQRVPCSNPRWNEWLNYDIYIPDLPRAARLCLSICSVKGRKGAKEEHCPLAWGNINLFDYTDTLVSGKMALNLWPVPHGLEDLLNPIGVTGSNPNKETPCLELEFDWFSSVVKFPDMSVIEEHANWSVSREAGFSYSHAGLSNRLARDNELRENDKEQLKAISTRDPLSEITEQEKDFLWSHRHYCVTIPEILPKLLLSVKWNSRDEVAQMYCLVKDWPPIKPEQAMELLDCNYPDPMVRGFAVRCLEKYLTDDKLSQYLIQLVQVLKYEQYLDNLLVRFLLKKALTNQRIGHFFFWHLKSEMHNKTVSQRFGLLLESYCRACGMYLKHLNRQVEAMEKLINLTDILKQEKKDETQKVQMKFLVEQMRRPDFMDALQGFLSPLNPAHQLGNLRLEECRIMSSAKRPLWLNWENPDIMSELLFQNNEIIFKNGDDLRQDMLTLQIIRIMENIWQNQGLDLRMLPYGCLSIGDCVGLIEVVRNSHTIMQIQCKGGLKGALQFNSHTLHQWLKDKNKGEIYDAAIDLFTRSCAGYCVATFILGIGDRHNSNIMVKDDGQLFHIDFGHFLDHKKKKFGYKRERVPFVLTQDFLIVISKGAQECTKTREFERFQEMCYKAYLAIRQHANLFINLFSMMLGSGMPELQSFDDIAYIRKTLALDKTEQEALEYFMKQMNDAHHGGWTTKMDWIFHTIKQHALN
row,SMILES,pIC50
1,CC(=O)Nc1nc2ccc(-c3cnc(N)cn3)cc2s1,> 7.00
2,CC(=O)Nc1nc2ccc(-c3ccc(N)cc3)cc2s1,6.00 to 7.00
3,CC(=O)Nc1nc2cnc(-c3cnc(Cl)c(NS(C)(=O)=O)c3)nc2s1,> 7.00
4,CC(=O)Nc1nc2ccc(-c3ccc4[nH]ccc4c3)nc2s1,6.00 to 7.00
5,CC(=O)Nc1nc2cnc(-c3cnc(N)c(C(F)(F)F)c3)nc2s1,> 7.00
6,CC(=O)Nc1nc2ccc(-c3ccc4[nH]ccc4c3)cc2s1,6.00 to 7.00
7,CC(=O)Nc1nc2cnc(-c3ccc(N)nc3)nc2s1,6.00 to 7.00
8,CC(=O)Nc1nc2ccc(-c3ccccc3N)nc2s1,6.00 to 7.00
9,CC(=O)Nc1nc2ccc(-c3cnc(Cl)c(NS(=O)(=O)C4CC4)c3)nc2s1,6.00 to 7.00
10,CC(=O)Nc1nc2ccc(-c3ccc(-c4nnc[nH]4)cc3)nc2s1,> 7.00
11,CNC(=O)c1cccc(-c2ccc3nc(NC(C)=O)sc3c2)c1,6.00 to 7.00
12,CS(=O)(=O)Nc1cc(-c2ccc3nc(NC(=O)C4CC4)sc3n2)cnc1Cl,> 7.00
13,CC(=O)Nc1nc2ccc(-c3ccc4c(c3)CC(=O)N4)nc2s1,> 7.00
14,CC(=O)Nc1nc2ccc(-c3cnc(Cl)c(NS(C)(=O)=O)c3)cc2s1,> 7.00
15,CC(=O)Nc1nc2ccc(-c3ccc4[nH]cc(C(N)=O)c4c3)cc2s1,6.00 to 7.00
16,CC(=O)Nc1nc2cnc(-c3cnc(Cl)c(N)c3)nc2s1,6.00 to 7.00
17,CC(=O)Nc1nc2ccc(-c3cnc(Cl)c(NS(=O)(=O)c4ccccc4)c3)nc2s1,> 7.00
18,CC(=O)Nc1nc2ccc(-c3ccc4[nH]cc(C=O)c4c3)cc2s1,> 7.00

# Now from value to compound:
row,pIC50,SMILES
1,6.00 to 7.00,CC(=O)Nc1nc2ccc(-c3ccncc3)nc2s1
2,> 7.00,CNC(=O)c1ccc(-c2ccc3nc(NC(C)=O)sc3n2)cc1
3,> 7.00,CC(=O)Nc1nc2ccc(-c3cnc4cc[nH]c4c3)nc2s1
4,> 7.00,CONC(=O)c1cccc(-c2ccc3nc(NC(C)=O)sc3n2)c1
5,6.00 to 7.00,CC(=O)Nc1ccc(-c2ccc3nc(NC(C)=O)sc3n2)cc1
6,> 7.00,CCS(=O)(=O)Nc1cc(-c2ccc3nc(NC(C)=O)sc3n2)cnc1Cl
7,> 7.00,CC(=O)Nc1nc2ccc(-c3ccc4nccn4c3)nc2s1
8,6.00 to 7.00,CC(=O)Nc1ccc(-c2ccc3nc(NC(C)=O)sc3n2)cn1
9,> 7.00,CNC(=O)c1ccc(-c2ccc3nc(NC(C)=O)sc3n2)cn1
10,> 7.00,CC(=O)Nc1nc2ccc(-c3ccc4[nH]ncc4c3)nc2s1
11,6.00 to 7.00,CC(=O)Nc1nc2ccc(-c3ccc(C#N)nc3)nc2s1
12,> 7.00,CONC(=O)c1ccc(-c2ccc3nc(NC(C)=O)sc3n2)cc1
13,> 7.00,CC(=O)Nc1nc2ccc(-c3cnc(Cl)c(NS(C)(=O)=O)c3)nc2s1
14,> 7.00,CC(=O)Nc1nc2ccc(-c3cnc4[nH]ccc4c3)nc2s1
